For four compounds, IC50 results are on record in BindingDB's records for doi:10.1021/acs.biochem.5b01128 (University College London, 2016).

Holding throughout (experiment): Kinase Inhibition Assay
The target of assay [1] is Dual specificity protein kinase CLK1 (Homo sapiens, UniProt P49759).
Assay [2] has as its target Dual specificity protein kinase CLK2 (Homo sapiens, UniProt P49760).
Assay [3] addresses Dual specificity protein kinase CLK3 (Homo sapiens, UniProt P49761).
Assay [4] addresses Dual specificity tyrosine-phosphorylation-regulated kinase 1A (Homo sapiens, UniProt Q13627).

For orientation: IC50 means the concentration that gives 50% inhibition. High values mean weaker potency, low ones greater potency.

Where only a bound is given, the exact number is not on record here.

Chain of Dual specificity protein kinase CLK2 (P49760 whole entry): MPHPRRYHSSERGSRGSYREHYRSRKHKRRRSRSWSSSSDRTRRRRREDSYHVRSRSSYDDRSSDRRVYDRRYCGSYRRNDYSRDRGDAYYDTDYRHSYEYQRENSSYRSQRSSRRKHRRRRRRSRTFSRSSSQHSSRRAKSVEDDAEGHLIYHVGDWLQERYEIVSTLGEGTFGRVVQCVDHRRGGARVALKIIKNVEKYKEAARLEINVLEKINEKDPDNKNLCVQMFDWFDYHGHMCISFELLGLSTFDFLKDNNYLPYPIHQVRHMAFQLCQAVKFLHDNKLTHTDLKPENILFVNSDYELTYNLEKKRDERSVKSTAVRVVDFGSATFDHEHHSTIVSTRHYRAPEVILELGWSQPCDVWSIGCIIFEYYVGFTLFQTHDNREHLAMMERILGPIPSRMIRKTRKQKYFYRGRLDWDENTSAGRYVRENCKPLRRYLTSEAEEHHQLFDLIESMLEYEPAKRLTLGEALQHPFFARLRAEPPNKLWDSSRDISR
Chain of Dual specificity protein kinase CLK1 (P49759 whole entry): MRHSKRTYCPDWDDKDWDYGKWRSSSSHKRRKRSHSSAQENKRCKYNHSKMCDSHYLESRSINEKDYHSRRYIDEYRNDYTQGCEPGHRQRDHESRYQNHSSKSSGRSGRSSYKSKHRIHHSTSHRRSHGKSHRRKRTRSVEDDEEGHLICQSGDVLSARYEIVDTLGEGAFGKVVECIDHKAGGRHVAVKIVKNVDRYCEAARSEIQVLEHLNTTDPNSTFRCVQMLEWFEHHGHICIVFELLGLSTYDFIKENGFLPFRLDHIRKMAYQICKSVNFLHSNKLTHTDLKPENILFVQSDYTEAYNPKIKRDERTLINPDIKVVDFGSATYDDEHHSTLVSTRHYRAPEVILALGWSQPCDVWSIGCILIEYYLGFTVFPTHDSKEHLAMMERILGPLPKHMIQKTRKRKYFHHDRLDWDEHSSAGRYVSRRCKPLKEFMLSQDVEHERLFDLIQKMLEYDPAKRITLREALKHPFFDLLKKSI
Chain of Dual specificity protein kinase CLK3 (P49761 as listed by the source): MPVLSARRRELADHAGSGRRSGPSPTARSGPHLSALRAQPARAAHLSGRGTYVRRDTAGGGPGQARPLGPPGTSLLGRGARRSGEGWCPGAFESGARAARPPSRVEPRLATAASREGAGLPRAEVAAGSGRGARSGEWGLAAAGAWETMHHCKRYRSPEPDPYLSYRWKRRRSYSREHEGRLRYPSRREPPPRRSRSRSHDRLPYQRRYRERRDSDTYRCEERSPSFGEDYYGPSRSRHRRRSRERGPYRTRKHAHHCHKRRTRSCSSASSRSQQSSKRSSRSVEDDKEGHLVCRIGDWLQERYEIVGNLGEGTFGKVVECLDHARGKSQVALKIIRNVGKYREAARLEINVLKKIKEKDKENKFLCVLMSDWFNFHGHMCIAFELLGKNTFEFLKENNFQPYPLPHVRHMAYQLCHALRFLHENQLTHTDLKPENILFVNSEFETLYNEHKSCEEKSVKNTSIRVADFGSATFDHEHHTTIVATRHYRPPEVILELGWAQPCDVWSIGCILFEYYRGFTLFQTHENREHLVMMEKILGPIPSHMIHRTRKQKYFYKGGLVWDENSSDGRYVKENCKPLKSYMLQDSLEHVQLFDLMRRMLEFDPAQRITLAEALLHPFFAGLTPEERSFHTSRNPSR

On to `Cc1nc2ccc3sc(NC(=O)c4ccc5ncsc5c4)nc3c2s1` [3A5], for which the IC50 in assay [1] turned out to be 51 nM; in assay [2], 68 nM; in assay [3], 346 nM; in assay [4], 260 nM.

`CSc1nc2ccc3nc(NC(=O)c4ccc(S(=O)(=O)N5CCOCC5)cc4)sc3c2s1` [5F4]: the IC50 in assay [1] was 273 nM; in assay [2], 127 nM; in assay [3], over 3000 nM; in assay [4], 213 nM.

As to `O=C1N=C(NCc2cccs2)S/C1=C/c1ccc2ncccc2c1` [NR9], the IC50 is 390 nM in assay [1], 553 nM in assay [2] and over 3000 nM in assay [3].

Turning to `CSc1nc2ccc3nc(NC(=O)c4ccco4)sc3c2s1` [5E4], the IC50 in assay [1] was 277 nM; in assay [2], 174 nM; in assay [3], over 3000 nM; in assay [4], 334 nM.
